Assay results from US20150183737A1, “COMPOSITIONS AND METHODS FOR SUBSTRATE-SELECTIVE INHIBITION OF ENDOCANNABINOID OXYGENATION” (Vanderbilt University, priority 2012, published 2015).

Columns and labels:
[1] = target: COX-2 in dorsal root ganglion cells (DRGs) (Mus musculus, UniProt Q05769)
Experimental: Treatment with inflammatory stimuli was performed as described herein below.
DRGs were harvested from E14 mouse embryos and plated onto collagen-coated dishes. After being cultured for 3-5 days, they were treated overnight with granulocyte-macrophage colony-stimulating factor followed by lipopolysaccharide, interferon γ, and 10 μM 15(S)-hydroxy-5,8,11,13-eicosatetraenoic acid for 6 hours.
DRGs, activated as above for 3 hours were treated with ionomycin for an additional 3 hours to stimulate substrate release.
The amounts of prostaglandin, PG-G, and PG-EA were quantified using stable-isotope dilution methods with labeled internal standards.

[2] = target: T1, purified murine COX-2 (Mus musculus, UniProt Q05769); settings: chiral profens; at 10 μM inhibitor; data taken from reference 10; cited from earlier work
T1 sequence (Q05769 18-604): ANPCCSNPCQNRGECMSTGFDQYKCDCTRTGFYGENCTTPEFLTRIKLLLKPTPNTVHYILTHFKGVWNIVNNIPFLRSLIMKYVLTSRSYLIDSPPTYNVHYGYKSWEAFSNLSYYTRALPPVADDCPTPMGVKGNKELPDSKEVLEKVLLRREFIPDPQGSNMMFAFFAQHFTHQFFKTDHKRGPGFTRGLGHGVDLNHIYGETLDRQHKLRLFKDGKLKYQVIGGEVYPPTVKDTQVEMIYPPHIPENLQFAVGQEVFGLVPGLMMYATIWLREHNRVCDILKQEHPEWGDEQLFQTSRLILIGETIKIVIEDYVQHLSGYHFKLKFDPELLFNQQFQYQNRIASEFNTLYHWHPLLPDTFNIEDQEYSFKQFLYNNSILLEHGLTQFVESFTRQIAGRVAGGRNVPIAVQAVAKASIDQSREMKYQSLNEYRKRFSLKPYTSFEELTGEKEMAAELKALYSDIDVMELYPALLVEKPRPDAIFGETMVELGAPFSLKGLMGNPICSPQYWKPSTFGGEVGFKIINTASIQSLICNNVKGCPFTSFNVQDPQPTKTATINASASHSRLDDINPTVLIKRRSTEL

## COc1ccc2cc([C@@H](C)C(=O)O)ccc2c1 [Compound 7b, (R)-naproxen]
[1]; at concentrations that inhibited PG-G and PG-EA synthesis
  Synthesis of prostaglandins in DRGs: did not inhibit
[1]; stimulated DRGs
  Amounts of AEA and 2-AG in cell extracts: increased
[2]
  % Inhibition AA: 0%
